# Reference: patent publication US12186295B2, “Ophthalmic compositions containing a nitric oxide releasing prostamide” (NICOX S.A., priority 2018, dated 2025)
# Assays:
# [1] = Solubility in water and aqueous solutions; assay type: physicochemical; conditions: aqueous solution at pH 6.0 containing 0.5% (w/w) of macrogol 15-hydroxystearate (Kolliphor® HS15)
# [2] = Impagnatiello et al., cited from earlier work
compound,measurement,setting,value
"CCNC(=O)CCC/C=C\C[C@@H]1[C@@H](/C=C/[C@H](CCc2ccccc2)OC(=O)CCCCCO[N+](=O)[O-])[C@H](O)C[C@@H]1O [NCX 470, Hexanoic acid, 6-(nitrooxy)-, (1S,2E)-3-[(1R,2R,3S,5R)-2-[(2Z)-7-(ethylamino)-7-oxo-2-hepten-1-yl]-3,5-dihydroxycyclopentyl]-1-(2-phenylethyl)-2-propen-1-yl ester]",solubility,[1],0.070 % (w/w)
same,IOP-lowering efficacy versus equimolar doses of bimatoprost,"[2]; British Journal of Pharmacology (2018), vehicle 0.25% Tween 80, 0.02% BAK, 2% glycerine, 0.1% EDTA",greater IOP-lowering efficacy
same,intra ocular pressure (IOP)-lowering agent,[2]; Invest Ophthalmol Vis Sci. 2015,effective
